Counter-ions that a name gives are not always drawn.
Experiments:
[1] = biological target: T1, Na-Pi cotransporter (Rattus norvegicus, UniProt Q9JJ09); assay: Na+-gradient-dependent 32Pi uptake by intestinal BBMV; assay type: biochemical; settings: 1 mM; for effect on initial 32P uptake by intestinal BBMV (in words): FIG. 4, Table 7; for 32Pi-phosphate uptake 30 sec: initial phase, rat small intestine BBMV, control 75 ± 3
T1 construct: The intestinal BBMV fractions were prepared from mucosa of rat small intestine; from tissue; host or cells: rat small intestine mucosa, brush border membrane vesicles
T1 sequence (Q9JJ09 1-695): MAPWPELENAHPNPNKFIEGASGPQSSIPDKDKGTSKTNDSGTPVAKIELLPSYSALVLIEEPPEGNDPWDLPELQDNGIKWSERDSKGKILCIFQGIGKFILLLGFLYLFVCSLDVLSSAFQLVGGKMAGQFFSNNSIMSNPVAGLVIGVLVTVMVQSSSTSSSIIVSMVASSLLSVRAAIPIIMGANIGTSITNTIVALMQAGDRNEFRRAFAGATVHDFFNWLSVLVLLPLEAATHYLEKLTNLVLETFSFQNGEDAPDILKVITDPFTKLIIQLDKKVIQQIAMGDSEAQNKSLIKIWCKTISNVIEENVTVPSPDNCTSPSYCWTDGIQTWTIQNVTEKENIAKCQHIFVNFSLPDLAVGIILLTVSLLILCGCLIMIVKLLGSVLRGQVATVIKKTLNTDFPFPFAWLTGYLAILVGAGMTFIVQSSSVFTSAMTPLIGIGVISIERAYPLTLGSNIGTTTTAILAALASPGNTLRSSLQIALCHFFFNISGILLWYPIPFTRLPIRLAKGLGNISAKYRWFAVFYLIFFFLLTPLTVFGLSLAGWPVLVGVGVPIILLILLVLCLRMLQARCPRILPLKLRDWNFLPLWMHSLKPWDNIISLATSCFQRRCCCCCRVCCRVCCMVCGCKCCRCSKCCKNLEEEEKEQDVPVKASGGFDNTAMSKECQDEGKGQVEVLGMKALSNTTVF
Procedure: (§1) The intestinal BBMV fractions were prepared from mucosa of rat small intestine of rats using the modified magnesium- precipitation method as described by B. Steiger and H. Murer [Eur. J. Biochem., 135, 95 (1983)]. This intestinal BBMV fraction is analogous to the BBMV fraction isolated from kidney. The uptake of ^32 Pi in the presence of Na^+ -gradient [Nao^+ >Nai^+ ] was determined by a rapid filtration technique similar to that employed in the transport measurements on renal BBMV. The Na^+ -gradient [Nao^+ >Nai^+ ]-dependent Pi uptake in the initial phase was measured after 30 sec. The ^32 Pi uptake at equilibrium was measured at 180 min.

[2] = test system: Na-Pi cotransporter; assay: as above; assay type: biochemical, rat; settings: 1 mM; equilibrium; rat small intestine BBMV; control 151 ± 4
Procedure: as §1

[3] = test system: L-[^3 H]--proline uptake by BBMV from rat small intestine; assay: L-[3H]-proline uptake by intestinal BBMV; assay type: biochemical; settings: 1 mM; for L-[3H]-proline uptake 15 sec: control 27 ± 0.2; for L-[3H]-proline uptake 120 min: control 53 ± 2
[4] = test system: D-[^3 H]--glucose uptake by BBMV from rat small intestine; assay: D-[3H]-glucose uptake by intestinal BBMV; assay type: biochemical; settings: 1 mM; for D-[3H]-glucose uptake 120 min: control 57 ± 2; for D-[3H]-glucose uptake 15 sec: control 67 ± 0.5
Procedure: The intestinal BBMV fractions were prepared from mucosa of rat small intestine of rats using the modified magnesium- precipitation method as described by B. Steiger and H. Murer [Eur. J. Biochem., 135, 95 (1983)]. This intestinal BBMV fraction is analogous to the BBMV fraction isolated from kidney. […]

[5] = test system: ^14 C--succinate uptake by BBMV from rat small intestine; assay: 14C-succinate uptake by intestinal BBMV; assay type: biochemical; settings: 1 mM; for 14C-succinate uptake 120 min: control 78 ± 3; for 14C-succinate uptake 15 sec: control 118 ± 7

SMILES | effect on initial 32P uptake by intestinal BBMV (in words) [1] | 32Pi-phosphate uptake 30 sec [1] [pmoles/mg protein] | 32Pi-phosphate uptake 180 min [2] [pmoles/mg protein] | L-[3H]-proline uptake 15 sec [3] [pmoles/mg protein] | L-[3H]-proline uptake 120 min [3] [pmoles/mg protein] | D-[3H]-glucose uptake 120 min [4] [pmoles/mg protein] | D-[3H]-glucose uptake 15 sec [4] [pmoles/mg protein] | 14C-succinate uptake 120 min [5] [pmol/mg protein] | 14C-succinate uptake 15 sec [5] [pmol/mg protein]
O=C(O)CP(=O)(O)O [PAA, phosphonoacetic acid] | markedly inhibited | 51 ± 0.3 | 163 ± 6 | 27 ± 1.0 | 55 ± 1.0 | 61 ± 3 | 68 ± 3 | 89 ± 3 | 127 ± 2
O=C(O)P(=O)(O)O [TPFA, Phosphonoformic acid, trisodium salt hexahydrate] | markedly inhibited | 44 ± 2 | 146 ± 5 | 27 ± 0.4 | 54 ± 0.1 | 57 ± 2 | 69 ± 2 | 81 ± 1 | 125 ± 3

— patent publication US4806532A, “Inhibition of epithelial phosphate transport” (Mayo Foundation for Medical Education and Research, priority 1985, dated 1989)
